The results in this text go back to US8012963B2, “3,4-dihydro-2H-benzo[1,4]oxazine and thiazine derivatives as CETP inhibitors” (Janssen Pharmaceutica N.V., priority 2006, dated 2011).

This assay addresses T1, CETP (Homo sapiens, UniProt P11597).
T1 construct: from tissue; host or cells: human plasma from normal volunteers
T1 sequence (P11597 18-493): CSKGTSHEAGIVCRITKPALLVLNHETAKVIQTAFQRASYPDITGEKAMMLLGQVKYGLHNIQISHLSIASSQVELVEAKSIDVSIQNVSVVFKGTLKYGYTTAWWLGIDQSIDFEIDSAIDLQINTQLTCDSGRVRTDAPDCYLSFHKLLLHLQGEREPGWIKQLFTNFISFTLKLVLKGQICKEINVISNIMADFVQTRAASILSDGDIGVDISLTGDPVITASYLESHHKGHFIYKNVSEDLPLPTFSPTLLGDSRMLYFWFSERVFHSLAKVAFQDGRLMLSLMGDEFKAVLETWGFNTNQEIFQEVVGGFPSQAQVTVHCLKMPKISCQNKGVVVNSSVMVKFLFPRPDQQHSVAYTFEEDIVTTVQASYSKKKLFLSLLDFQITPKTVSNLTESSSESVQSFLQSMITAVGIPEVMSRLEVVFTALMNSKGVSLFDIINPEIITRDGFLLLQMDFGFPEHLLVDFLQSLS
Description: CETP in vitro assay ([3H]CE-HDL transfer, Amersham kit TRKQ7005; modified protocol in human plasma). Type of assay: biochemical. As to conditions: multiple values = multiple measurements; for % Inhibition @ 1 μM / inhibition at 1 µM: 1 μM compound. The procedure: The CETP inhibitory activity of the compounds was determined using a commercially available kit from Amersham Biosciences (Catalog #TRKQ7005).
For the measurement of inhibitory activity in human plasma, a modified protocol (Connolly, D. T. et al., Biochemistry, 39 13870-13879, 2000) was used. Briefly, 80 μl of human plasma (obtained from normal volunteers), approximately 25 μg/ml (200) of [^3H]CE-HDL (Amersham Biosciences from kit TRKQ7005) and 1 μl of compound dissolved in DMSO was incubated for at least 4 hrs at 37° C. and non-specific transfer was determined by incubating a corresponding plate at 4° C. (blank). After the incubation period, 100 of a solution of 1% Dextralip 50/0.5M MgCl2, pH 7.4 was added, vortexed and incubated at room temperature for 10 min. The plate was then centrifuged for 30 min at 10° C. at 3000 rpm in a Sorvall RT6000B centrifuge. Fifty microliters of the supernatant was transferred to a Picoplate (Packard) containing 100 μl of Microscint 40 (Perkin Elmer) and mixed for 30 min using a plate mixer. The radioactivity was counted using a TopCount (Perkin Elmer) and the % control was determined in the samples using the following formula: % transfer relative to vehicle controls (% control)=[cpm blank-cpm test]/cpm blank/cpm control]×100. IC50s were calculated from plots of the % control versus compound concentration.
A variety of example compounds have been made and tested, with a range of in vitro results. Below, in Table 2, are representative compounds and the corresponding data; in some cases, where multiple IC50's are shown, multiple measurements were taken. Naturally, different compounds in Formula (I), (Ia), (Ib) and (Ic) may have not activities identical to any one compound below.

For the compound `OC(CN1c2cccc(-c3cccc(OC(F)(F)F)c3)c2OCC1c1ccc(OC(F)(F)C(F)F)cc1)C(F)(F)F` (centres unmarked) [Compound 94, 1,1,1-Trifluoro-3-[3-[4-(1,1,2,2-tetrafluoro-ethoxy)-phenyl]-8-(3-trifluoromethoxy-phenyl)-2,3-dihydro-benzo[1,4]oxazin-4-yl]propan-2-ol], the “% Inhibition @ 1 μM” value is recorded as 11%.

The term inhibition denotes the drop in the measured response relative to a control, in per cent. Take `O[C@H](CN1c2cccc(-c3cccc(OC(F)(F)F)c3)c2OC[C@@H]1c1cccc(OC(F)(F)F)c1)C(F)(F)F` [Compound 10, 4H-1,4-Benzoxazine-4-ethanol, 2,3-dihydro-3,8-bis[3-(trifluoromethoxy)phenyl]-α-(trifluoromethyl)-, (3S,αR)—]: the inhibition at 1 µM was determined as 23%.

As a reminder, the IC50 is the concentration at which inhibition is half-maximal. High values mean a need for much substance, low ones inhibition by little substance. `O[C@@H](CN1c2cccc(-c3cc(F)cc(F)c3)c2OC[C@@H]1c1cccc(OC(F)(F)F)c1)C(F)(F)F` [Compound 80, 4H-1,4-Benzoxazine-4-ethanol, 2,3-dihydro-3-[3-(trifluoromethoxy)phenyl]-8-[3,5-(difluoro)phenyl]-α-(trifluoromethyl)-, (3S,αS)—]: the inhibition at 1 µM amounted to 100% and the IC50 was 0.193 µM.

Consider `C[C@H](O)CN1c2cccc(-c3cccc(OC(F)(F)F)c3)c2OC[C@@H]1c1cccc(OC(F)(F)C(F)F)c1` [Compound 36, 4H-1,4-Benzoxazine-4-ethanol, 2,3-dihydro-α-methyl-3-[3-(1,1,2,2-tetrafluoroethoxy)phenyl]-8-[3-(trifluoromethoxy)phenyl]-, (3S,αS)—], for which the inhibition at 1 µM was found to be 28%.

For `O[C@H](CN1c2cccc(-c3cc(F)c(F)c(F)c3)c2OC[C@@H]1c1cccc(OC(F)(F)C(F)F)c1)C(F)(F)F` [Compound 77, 4H-1,4-Benzoxazine-4-ethanol, 2,3-dihydro-3-[3-(1,1,2,2-tetrafluoroethoxy)phenyl]-8-[3,4,5-trifluoro-phenyl]-α-(trifluoromethyl)-, (3S,αR)—], the inhibition at 1 µM was 80%, the “% Inhibition @ 1 μM” value was found to be 82% and 0.22 µM corresponded to half-maximal inhibition (IC50).

For the compound `O[C@@H](CN1c2cccc(-c3cc(F)c(F)c(F)c3)c2OC[C@@H]1c1cccc(OC(F)(F)C(F)F)c1)C(F)(F)F` [Compound 76, 4H-1,4-Benzoxazine-4-ethanol, 2,3-dihydro-3-[3-(1,1,2,2-tetrafluoroethoxy)phenyl]-8-[3,4,5-trifluoro-phenyl]-α-(trifluoromethyl)-, (3S,αS)—], the inhibition at 1 µM amounted to 106%, the “% Inhibition @ 1 μM” value came to 101% and the IC50 came out at 0.041 µM.

Consider `COc1ccsc1C1COc2c(-c3cccc(OC(F)(F)F)c3)cccc2N1CC(O)C(F)(F)F` (centres unmarked) [Compound 61, 1,1,1-Trifluoro-3-[3-(3-methoxy-thiophen-2-yl)-8-(3-trifluoromethoxy-phenyl)-2,3-dihydro-benzo[1,4]oxazin-4-yl]-propan-2-ol], for which the “% Inhibition @ 1 μM” value turned out to be 3%.

With `OCCN1c2cccc(-c3cccc(OC(F)(F)F)c3)c2OCC1c1cccc(OC(F)(F)C(F)F)c1` (centres unmarked) [Compound 23, 2-[3-[3-(1,1,2,2-Tetrafluoro-ethoxy)-phenyl]-8-(3-trifluoromethoxy-phenyl)-2,3-dihydro-benzo[1,4]oxazin-4-yl]-ethanol], the inhibition at 1 µM worked out at 29%.

In the case of `O[C@H](CN1c2cccc(-c3cccc(OC(F)(F)F)c3)c2OC[C@@H]1c1cccc(OC(F)(F)C(F)F)c1)C(F)(F)F` [Compound 4, 4H-1,4-Benzoxazine-4-ethanol, 2,3-dihydro-3-[3-(1,1,2,2-tetrafluoroethoxy)phenyl]-8-[3-(trifluoromethoxy)phenyl]-α-(trifluoromethyl)-, (3S,αR)—], the inhibition at 1 µM was 26%.

Take `COCCCC1COc2c(-c3cccc(OC(F)(F)F)c3)cccc2N1CC(O)C(F)(F)F` (centres unmarked) [Compound 55]: the inhibition at 1 µM was 0%.

Take `O[C@H](CN1c2cccc(-c3cc(F)c(F)c(F)c3)c2OC[C@@H]1c1cccc(OC(F)(F)F)c1)C(F)(F)F` [Compound 83, 4H-1,4-Benzoxazine-4-ethanol, 2,3-dihydro-3-[3-(trifluoromethoxy)phenyl]-8-[3,4,5-(trifluoro)phenyl]-α-(trifluoromethyl)-, (3S,αR)—]: the inhibition at 1 µM is 29%.

With `OC(CN1c2cccc(-c3cccc(OC(F)(F)F)c3)c2OCC1c1cccc(C(F)(F)F)c1)C(F)(F)F` (centres unmarked) [Compound 70, 1,1,1-Trifluoro-3-[8-(3-trifluoromethoxy-phenyl)-3-(3-trifluoromethyl-phenyl)-2,3-dihydro-benzo[1,4]oxazin-4-yl]propan-2-ol], the “% Inhibition @ 1 μM” value came to 37%.

`CCN1c2cccc(-c3cccc(OC(F)(F)F)c3)c2OCC1c1cccc(OC(F)(F)C(F)F)c1` (centres unmarked) [Compound 33, 4-Ethyl-3-[3-(1,1,2,2-tetrafluoro-ethoxy)-phenyl]-8-(3-trifluoromethoxy-phenyl)-3,4-dihydro-2H-benzo[1,4]oxazine]: the inhibition at 1 µM came out at 24%.

As to `COc1ccsc1C1COc2c(-c3cccc(OC(F)(F)F)c3)cccc2N1CC(O)C(F)(F)F` (centres unmarked) [Compound 60, 1,1,1-Trifluoro-3-[3-(3-methoxy-thiophen-2-yl)-8-(3-trifluoromethoxy-phenyl)-2,3-dihydro-benzo[1,4]oxazin-4-yl]-propan-2-ol], the “% Inhibition @ 1 μM” value is 0%.

`OC(CN1c2cccc(-c3cccc(OC(F)(F)F)c3)c2OCC1c1cccs1)C(F)(F)F` (centres unmarked) [Compound 104, 1,1,1-Trifluoro-3-[3-thiophen-2-yl-8-(3-trifluoromethoxy-phenyl)-2,3-dihydro-benzo[1,4]oxazin-4-yl]-propan-2-ol]: the “% Inhibition @ 1 μM” value was determined as 0%.

For `OC(CN1c2cccc(-c3cccc(OC(F)(F)F)c3)c2OCC1c1ccc(OC(F)(F)C(F)F)cc1)C(F)(F)F` (centres unmarked) [Compound 93, 1,1,1-Trifluoro-3-[3-[4-(1,1,2,2-tetrafluoro-ethoxy)-phenyl]-8-(3-trifluoromethoxy-phenyl)-2,3-dihydro-benzo[1,4]oxazin-4-yl]propan-2-ol], the “% Inhibition @ 1 μM” value was 33%.

Turning to `COC(=O)NCCN1c2cccc(-c3cccc(OC(F)(F)F)c3)c2OCC1c1cccc(OC(F)(F)C(F)F)c1` (centres unmarked) [Compound 41, {2-[3-[3-(1,1,2,2-Tetrafluoro-ethoxy)-phenyl]-8-(3-trifluoromethoxy-phenyl)-2,3-dihydro-benzo[1,4]oxazin-4-yl]-ethyl}-carbamic acid methyl ester], the inhibition at 1 µM worked out at 2%.

Turning to `O[C@H](CN1c2cccc(-c3cc(C(F)(F)F)cc(C(F)(F)F)c3)c2OC[C@@H]1c1cccc(OC(F)(F)C(F)F)c1)C(F)(F)F` [Compound 79, 4H-1,4-Benzoxazine-4-ethanol, 2,3-dihydro-3-[3-(1,1,2,2-tetrafluoroethoxy)phenyl]-8-[3,5-bis(trifluoromethyl)phenyl]-α-(trifluoromethyl)-, (3S,αR)—], the inhibition at 1 µM was 43%, the “% Inhibition @ 1 μM” value was found to be 40% and inhibition was half-maximal at 5 µM (IC50).

Turning to `COC(=O)N1c2cccc(-c3cccc(OC(F)(F)F)c3)c2OCC1c1cccc(OC(F)(F)C(F)F)c1` (centres unmarked) [Compound 20, 3-[3-(1,1,2,2-Tetrafluoro-ethoxy)-phenyl]-8-(3-trifluoromethoxy-phenyl)-2,3-dihydro-benzo[1,4]oxazine-4-carboxylic acid methyl ester], the inhibition at 1 µM worked out at 16%.
